From PubChem BioAssay (NCI)
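Test compounds were applied to cells in 96-well plates for 48 hours at 5 doses. TGI: concentration producing complete growth inhibition.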

Legend:
Test in all cases: DTP human tumour cell line panel, 48 h
DU-145 prostate = tested on: DU-145 prostate
IGROV1 ovarian = tested on: IGROV1 ovarian
NCI-H226 lung = tested on: NCI-H226 lung
NCI/ADR-RES ovarian = tested on: NCI/ADR-RES ovarian
MALME-3M melanoma = tested on: MALME-3M melanoma
MOLT-4 leukemia = tested on: MOLT-4 leukemia
HT29 colon = tested on: HT29 colon
BT-549 breast = tested on: BT-549 breast
EKVX NSCLC = tested on: EKVX NSCLC
MDA-MB-435 = tested on: MDA-MB-435
CAKI-1 renal = tested on: CAKI-1 renal
HOP-92 NSCLC = tested on: HOP-92 NSCLC
SK-MEL-28 melanoma = tested on: SK-MEL-28 melanoma
LOX IMVI melanoma = tested on: LOX IMVI melanoma

Row | Compound | TGI (DU-145 prostate) [µM] | TGI (IGROV1 ovarian) [µM] | TGI (NCI-H226 lung) [µM] | TGI (NCI/ADR-RES ovarian) [µM] | TGI (MALME-3M melanoma) [µM] | TGI (MOLT-4 leukemia) [µM] | TGI (HT29 colon) [µM] | TGI (BT-549 breast) [µM] | TGI (EKVX NSCLC) [µM] | TGI (MDA-MB-435) [µM] | TGI (CAKI-1 renal) [µM] | TGI (HOP-92 NSCLC) [µM] | TGI (SK-MEL-28 melanoma) [µM] | TGI (LOX IMVI melanoma) [µM]
1 | COc1c(-c2ccc(F)cc2)oc2c(CC(=O)O)cccc2c1=O | > 100 | > 100 | > 100 | > 100 | > 100 | > 100 | > 100 | > 100 | > 100 | > 100 | 71.5 | – | – | –
2 | COC(=O)CCc1cc(OC)c2oc(-c3ccc(OC)c(OC)c3)c(CO)c2c1 | > 100 | > 100 | > 100 | > 100 | > 100 | > 100 | > 100 | > 100 | > 100 | > 100 | > 100 | > 100 | > 100 | > 100
3 | N#Cc1c2c(c(Nc3cccc(C(F)(F)F)c3)n3c1nc1ccccc13)CCCC2 | > 100 | – | 63.2 | 51.8 | 85.7 | > 100 | 56.4 | 95.3 | 62.4 | > 100 | 82.4 | 22.5 | 47.5 | 35.8
4 | CCCCCCc1cc2cc(-c3cn4ccccc4n3)c(=O)oc2cc1O | 19.3 | 27.7 | 34.5 | 21.4 | 4.74 | > 63.3 | > 100 | 22.1 | 45.4 | 20.6 | 13.5 | 32.6 | 24.7 | > 36.9
5 | COc1cc(C2SCC(=O)N2c2ccc(Cl)cc2)cc(OC)c1OC (stereo unspecified) | > 100 | > 100 | 98.4 | > 100 | > 100 | 30.7 | > 41 | > 100 | > 60.1 | 19.4 | > 100 | > 100 | > 100 | > 100
6 | Cc1nnc(N)nc1C/C=C/C(C)Sc1ccc(Cl)cc1 (stereo unspecified) | 38.1 | 13.5 | 7.69 | > 60.3 | 33.7 | > 100 | 43.8 | > 67.2 | 23.3 | > 50.8 | 33.9 | 68.8 | 45 | > 30.4
7 | CC(C)C1CCC(=O)CC1CCCCC1CC(=O)CC1O[Si](C)(C)C(C)(C)C (stereo unspecified) | 39.1 | 8.24 | 15.5 | 21.2 | 19.1 | 5.5 | 10.3 | 13.3 | 36.1 | 10.9 | 19.4 | 13.1 | 19.7 | 9.28
8 | CC1=C(C(=O)NNC(=O)c2ccccc2O)CC(C(=O)NNC(=O)c2ccccc2O)=C(C)N1 | > 93.5 | > 35.4 | > 41.7 | > 51.3 | > 100 | > 100 | > 100 | > 100 | > 72.7 | > 100 | > 100 | > 100 | > 100 | > 100
9 | CCOC(=O)c1c(Br)c(-c2ccc([N+](=O)[O-])cc2)c(Br)n1C | > 10 | > 10 | > 10 | > 10 | > 10 | > 10 | > 10 | > 10 | > 10 | > 10 | > 10 | > 10 | > 10 | > 10
10 | CCOC(=O)c1cc(C2CCN(Cc3ccccc3)C2=O)c(C(=O)/C=C(/C)N)[nH]1 (stereo unspecified) | > 100 | > 100 | – | > 100 | > 100 | > 100 | > 100 | > 100 | > 100 | > 100 | > 100 | 97.5 | > 100 | –
11 | CC(C)(CN1CCCCC1)C(=O)CC(SCCS(=O)(=O)O)c1ccccc1 (stereo unspecified) | 29.3 | > 100 | 62 | 70.6 | 33.3 | 36.1 | 31.7 | 49.4 | 50.5 | 29.3 | 34.9 | 25.3 | – | –
12 | Cc1cnc2c(c1)C(=O)N(c1ccc(Br)cc1)S2(=O)=O | > 100 | > 100 | > 100 | > 100 | > 100 | > 100 | > 100 | > 100 | > 100 | > 100 | > 100 | – | > 100 | > 100
13 | CCOC(=O)C(CCSC)(CCSC)C(=O)OCC | > 100 | > 100 | > 100 | > 100 | > 100 | > 100 | > 100 | > 100 | > 100 | > 100 | > 100 | – | > 100 | > 100
14 | Cc1ccc(C(CCO)CCO)nc1 | > 100 | – | > 100 | > 100 | > 100 | > 100 | > 100 | > 100 | > 100 | > 100 | > 100 | > 100 | > 100 | > 100
15 | CC(NNC(=S)N1CCCC1)c1cccnn1 (stereo unspecified) | > 70 | > 59.3 | > 26.5 | > 62.9 | > 100 | > 100 | > 100 | > 56.1 | – | > 100 | > 100 | – | > 31.6 | > 100
16 | O=C(/C=C/c1ccc(Cl)cc1)c1nc2ccccc2[nH]1 | 33.1 | > 100 | > 100 | > 100 | > 100 | – | 63.4 | > 100 | 83.3 | 36.2 | 10.1 | > 100 | > 100 | 32.6
17 | CC(C)(C)C1CCC2c3c([nH]c4ccccc34)C3C(=O)N(c4cc(Cl)ccc4Cl)C(=O)C3C2C1 (stereo unspecified) | > 100 | > 100 | > 100 | > 100 | > 100 | > 100 | > 100 | > 100 | > 100 | > 100 | > 100 | > 100 | – | > 100

Row | Compound | TGI (DU-145 prostate) [µM] | TGI (IGROV1 ovarian) [µM] | TGI (NCI-H226 lung) [µM] | TGI (NCI/ADR-RES ovarian) [µM] | TGI (MALME-3M melanoma) [µM] | TGI (MOLT-4 leukemia) [µM] | TGI (HT29 colon) [µM] | TGI (BT-549 breast) [µM] | TGI (EKVX NSCLC) [µM] | TGI (MDA-MB-435) [µM] | TGI (CAKI-1 renal) [µM] | TGI (HOP-92 NSCLC) [µM] | TGI (SK-MEL-28 melanoma) [µM] | TGI (LOX IMVI melanoma) [µM]
18 | CC(=O)O[C@H]1C(=O)[C@@]2(C)[C@H]([C@H](OC(=O)c3ccccc3)[C@]3(O)C[C@H](OC(=O)[C@H](O)[C@@H](NC(=O)OC(C)(C)C)c4ccco4)C(C)=C1C3(C)C)[C@]1(OC(C)=O)CO[C@@H]1C[C@@H]2O | < 0.005 | > 50 | – | 0.643 | > 47 | 25.9 | 0.24 | < 0.005 | > 50 | 2.27 | > 50 | 43.5 | > 28.3 | 22.3
19 | O=C1Nc2n[nH]c(=S)n2NC12c1ccccc1-c1ccccc12 | > 100 | > 100 | > 100 | > 100 | > 100 | – | > 100 | > 100 | > 100 | 37.4 | > 100 | > 100 | > 100 | > 100
20 | CCCCCCC(O)C(=O)OC1C2C(CC1(C)C)C(O)C13OC1C(O)C1(CO1)[C@@]23C (stereo partly specified) | > 100 | > 100 | – | > 100 | > 100 | > 100 | – | > 100 | > 100 | > 100 | > 100 | – | > 100 | > 100
21 | Cn1c2ccccc2c(=NNc2ccc(S(=O)(=O)N=C(N)N)cc2)c2ccccc21 | 32.3 | 28.5 | 19 | 71.1 | 20.7 | 13.4 | 14.5 | 29.1 | 25 | 23.7 | 38.8 | 36.4 | – | 16.9
22 | O=c1[nH]nc(-c2ccccc2)n1-n1cccc1 | > 100 | > 100 | > 100 | > 100 | > 100 | > 100 | > 100 | > 100 | > 100 | > 100 | > 100 | – | > 100 | > 100
23 | COc1c(N2CCCCC2)c2c(=O)c3ccccc3oc2c2c3ccccc3n(C)c12 | > 100 | – | > 100 | > 100 | > 100 | > 100 | > 100 | > 100 | > 100 | > 100 | > 100 | > 100 | > 100 | > 100
24 | O=C1NC(NNc2ccccc2)=N/C1=C\c1ccco1 | 42.9 | 34 | – | > 100 | 81.6 | > 100 | 52.3 | 50.7 | 46.7 | 47.6 | 30.6 | 30.6 | 68.5 | –
25 | O=C(Cn1c2ccc(Br)cc2c2nc3ccccc3nc21)N1CCOCC1 | > 100 | > 100 | > 100 | > 100 | > 100 | > 100 | > 100 | > 100 | – | > 100 | > 100 | 83.3 | > 100 | > 100
26 | CC(=O)Oc1ccc(C)c2c1[C@H]1CC[C@]3(C)[C@@H](OC(C)=O)CC[C@H]3[C@@H]1CC2 | 66.6 | 36.4 | 54.8 | 40.4 | 30.4 | 46.5 | 33.5 | 32 | 30.9 | 32.9 | – | 30.9 | 33.2 | 31.4
27 | CCN(CC)CCC(=O)Nc1ccc2sc3ccccc3c(=O)c2n1 | > 100 | 35.8 | – | 72 | 39.1 | > 100 | > 100 | 36.1 | > 100 | 26.4 | 28.8 | 0.0992 | 33.6 | 38.9
28 | CC1=NC(=O)CNN1C1=NNC2(C(=O)N1)c1ccccc1-c1ccccc12 | > 100 | > 100 | > 100 | > 100 | > 100 | – | > 100 | > 100 | > 100 | > 100 | > 100 | > 100 | > 100 | > 100
29 | CCOC(OCC)[C@@H]1C[C@@H]2N(O[C@H](OC3CCCC3(c3ccccc3)c3ccccc3)[C@H](OC(C)=O)[C@@]2(CC)Cc2ccc(OC)c(OC)c2)O1 (stereo partly specified) | > 100 | > 100 | > 100 | > 100 | – | > 100 | > 100 | > 100 | > 100 | > 100 | > 100 | – | > 100 | > 100
30 | CC(Cn1c(=O)oc2ccccc21)N(C)C (stereo unspecified) | > 100 | > 100 | > 100 | > 100 | > 100 | > 100 | > 100 | > 100 | > 100 | > 100 | > 100 | – | > 100 | > 100
31 | CN(C)C1(N(C)C)Oc2c(c(=O)n(C)c(=O)n2C)C(c2ccc(F)cc2)C1(F)F (stereo unspecified) | > 100 | – | > 100 | > 100 | – | – | – | > 100 | > 100 | > 100 | > 100 | > 100 | > 100 | > 100
32 | Cc1ccc(/C=C2\CCS(=O)(=O)c3ccccc3C2=O)cc1 | 27.7 | 28.7 | 36.2 | 28.2 | – | 43.6 | 31.9 | 34 | 34.9 | 55.2 | 33.2 | 31 | 39.1 | 30.8
33 | CCOC(=O)NC(C(F)(F)F)(C(F)(F)F)P(=O)(OCC)OCC | > 100 | > 100 | > 100 | > 100 | > 100 | 97.9 | > 100 | > 100 | – | > 100 | – | > 100 | > 100 | > 100
34 | COc1ccc(C(SCCO)(c2ccc(OC)cc2)c2ccc(OC)cc2)cc1 | > 100 | – | 32.7 | 49.1 | 34.3 | 56.4 | 46 | 38.4 | 36.5 | 23.5 | > 100 | 28.8 | 38.6 | 27.1
